Where two headings read alike, the source gives them in different places. Starred links: 1 amine or outer side, 2 acyl side, 3 side chain; linkers in the order of their positions; H or OH if unused. Positions of bridges follow the written chain, without caps; N, C: chain ends. Non-standard residues stand in square brackets, D forms with d. Residues, ends and D or L forms follow the SMILES beside them. *: point of attachment. Orn(4R-OH,5R-OCH2CH2NMe3+) = C[N+](C)(C)CCO[C@@H](N[*:3])[C@H](O)C[C@H](N[*:1])C(=O)[*:2]; pTerphenylCO(4''-OnC5H11) = CCCCCOc1ccc(-c2ccc(-c3ccc(C(=O)*)cc3)cc2)cc1; hTyr(3S-OH,4S-OH) = N[C@H](C(=O)O)[C@H](O)[C@@H](O)c1ccc(O)cc1; Pro(3S-OH,4S-Me) = C[C@H]1CN[C@H](C(=O)O)[C@H]1O; Hyp = O=C(O)[C@@H]1C[C@@H](O)CN1
What was measured:
[1] = Pharmacokinetics of CD101 after single 30 mg/kg SC (vs IV) dose in monkeys; assay type: in vivo; settings: cynomolgus monkey, plasma; for half-life: 30 mg/kg
Experimental: Previous toxicology studies by the IV route of administration conducted in cynomolgus monkeys have shown CD101 to be safe and well tolerated at up to at least 30 mg/kg, which generates very high systemic exposures upon initial infusion of CD101 into the bloodstream. Therefore, only local tolerability (and PK) of CD101 by SC administration required evaluation. […] Plasma concentrations were then quantified by liquid chromatography with tandem mass spectrometric detection (LC-MS/MS). Bioavailability from SC dosing was calculated by comparing the calculated area under the concentration-time profile (AUC) from SC against the AUC from IV administration of the same dose.

[2] = system: C. albicans SC-5314 biofilms; experiment: Adhesion phase biofilms (prevention), XTT metabolic activity and CSLM; assay type: cell-based, Candida albicans
[3] = system: C. albicans strain 529L; experiment: Rat model of vulvovaginal candidiasis, vaginal lavage and tissue burden; assay type: in vivo, Candida albicans
[4] = both sexes, sc, Subcutaneous 30 mg/kg
[5] = female, animal 9707, F, 30 mg/kg SC
[6] = male, animal 9697, M, 30 mg/kg SC
[7] = 5 mg/kg SC Dosed Once, lavage Day 1 post infection, pre-treatment
[8] = 5 mg/kg SC Dosed Once, lavage Day 2 post infection
[9] = 5 mg/kg SC Dosed Once, lavage Day 3 post infection
[10] = 5 mg/kg SC Dosed Once, lavage Day 5 post infection
[11] = 5 mg/kg SC Dosed Once, lavage Day 7 post infection
[12] = 5 mg/kg SC Dosed Once, lavage Day 9 post infection
[13] = 5 mg/kg SC Dosed Once, terminal vaginal tissue Day +9 post infection
[14] = 5 mg/kg SC Dosed Twice, lavage Day 1 post infection, pre-treatment
[15] = 5 mg/kg SC Dosed Twice, lavage Day 2 post infection
[16] = 5 mg/kg SC Dosed Twice, lavage Day 3 post infection
[17] = 5 mg/kg SC Dosed Twice, lavage Day 5 post infection
[18] = 5 mg/kg SC Dosed Twice, lavage Day 7 post infection
[19] = 5 mg/kg SC Dosed Twice, lavage Day 9 post infection
[20] = 5 mg/kg SC Dosed Twice, terminal vaginal tissue Day +9 post infection
[21] = 10 mg/kg SC Dosed Once, lavage Day 1 post infection, pre-treatment
[22] = 10 mg/kg SC Dosed Once, lavage Day 2 post infection
[23] = 10 mg/kg SC Dosed Once, lavage Day 3 post infection

CCCCCOc1ccc(-c2ccc(-c3ccc(C(=O)N[C@H]4C[C@@H](O)[C@@H](OCC[N+](C)(C)C)NC(=O)[C@@H]5[C@@H](O)[C@@H](C)CN5C(=O)[C@H]([C@@H](C)O)NC(=O)[C@H]([C@H](O)[C@@H](O)c5ccc(O)cc5)NC(=O)[C@@H]5C[C@@H](O)CN5C(=O)[C@H]([C@@H](C)O)NC4=O)cc3)cc2)cc1 [CD101] ({pTerphenylCO(4''-OnC5H11)}-[Orn(4R-OH,5R-OCH2CH2NMe3+)]T[Hyp][hTyr(3S-OH,4S-OH)]T[Pro(3S-OH,4S-Me)]; lactam 1-C)
half-life [1, 4]: ~124 h
AUC(0-t) [1, 4]: 2460 µg·h/mL
Cmax [1, 4]: 13400 ng/mL
Tmax [1, 4]: 72 h
AUC(0-inf) ([1]; both sexes, sc, Subcutaneous 30 mg/kg, read-out: AUCinf): 3520 µg·h/mL
bioavailability ([1]; both sexes, subcutaneous, SC 30 mg/kg vs IV at the same dose, 10-day period): 80%
half-life ([1]; iv, IV 30 mg/kg): 49.7 h
AUC(0-t) ([1]; IV 30 mg/kg): 3140 µg·h/mL
Cmax ([1]; IV 30 mg/kg): 112000 ng/mL
Tmax ([1]; IV 30 mg/kg): 1 h
AUC(0-inf) ([1]; IV 30 mg/kg, read-out: AUCinf): 3340 µg·h/mL
half-life ([1]; female, sc, animal 9707, F, 30 mg/kg SC): 171 h
AUC(0-t) [1, 5]: 2180 µg·h/mL
Cmax [1, 5]: 10900 ng/mL
Tmax [1, 5]: 48 h
AUC(0-inf) ([1]; female, animal 9707, F, 30 mg/kg SC, read-out: AUCINF_obs): 3760 µg·h/mL
half-life ([1]; male, sc, animal 9697, M, 30 mg/kg SC): 76.2 h
AUC(0-t) [1, 6]: 2740 µg·h/mL
Cmax [1, 6]: 15900 ng/mL
Tmax [1, 6]: 96 h
AUC(0-inf) ([1]; male, animal 9697, M, 30 mg/kg SC, read-out: AUCINF_obs): 3280 µg·h/mL
biofilm formation by metabolic activity (XTT) ([2]; CD101 0.25 and 1 μg/ml, 24 h, vs untreated): formed significantly less biofilms compared to untreated C. albicans
thickness of biofilms ([2]; exposure to CD101, untreated control 36 μm): 4 μm
Group Geometric mean [3, 7]: 9.11 × 10^2 CFU/mL
Log Group Geometric mean [3, 7]: 2.96 CFU/mL
Log reduction from vehicle control [3, 7]: −0.52 CFU/mL
Group Geometric mean [3, 8]: 3.34 × 10^2 CFU/mL
Log Group Geometric mean [3, 8]: 2.52 CFU/mL
Log reduction from vehicle control [3, 8]: 1.17 CFU/mL
Group Geometric mean [3, 9]: 1.21 × 10^2 CFU/mL
Log Group Geometric mean [3, 9]: 2.08 CFU/mL
Log reduction from vehicle control [3, 9]: 1.49 CFU/mL
Group Geometric mean [3, 10]: 1.70 × 10^3 CFU/mL
Log Group Geometric mean [3, 10]: 3.23 CFU/mL
Log reduction from vehicle control [3, 10]: 0.99 CFU/mL
Group Geometric mean [3, 11]: 4.56 × 10^3 CFU/mL
Log Group Geometric mean [3, 11]: 3.66 CFU/mL
Log reduction from vehicle control [3, 11]: 0.52 CFU/mL
Group Geometric mean [3, 12]: 4.58 × 10^3 CFU/mL
Log Group Geometric mean [3, 12]: 3.66 CFU/mL
Log reduction from vehicle control [3, 12]: 0.64 CFU/mL
Group Geometric mean [3, 13]: 1.37 × 10^5 CFU/g
Log Group Geometric mean [3, 13]: 5.14 CFU/g
Group Geometric mean [3, 14]: 1.83 × 10^3 CFU/mL
Log Group Geometric mean [3, 14]: 3.26 CFU/mL
Log reduction from vehicle control [3, 14]: −0.83 CFU/mL
Group Geometric mean [3, 15]: 2.56 × 10^2 CFU/mL
Log Group Geometric mean [3, 15]: 2.41 CFU/mL
Log reduction from vehicle control [3, 15]: 1.29 CFU/mL
Group Geometric mean [3, 16]: 1.95 × 10^2 CFU/mL
Log Group Geometric mean [3, 16]: 2.29 CFU/mL
Log reduction from vehicle control [3, 16]: 1.28 CFU/mL
Group Geometric mean [3, 17]: 1.73 × 10^3 CFU/mL
Log Group Geometric mean [3, 17]: 3.24 CFU/mL
Log reduction from vehicle control [3, 17]: 0.98 CFU/mL
Group Geometric mean [3, 18]: 6.47 × 10^2 CFU/mL
Log Group Geometric mean [3, 18]: 2.81 CFU/mL
Log reduction from vehicle control [3, 18]: 1.37 CFU/mL
Group Geometric mean [3, 19]: 1.28 × 10^3 CFU/mL
Log Group Geometric mean [3, 19]: 3.11 CFU/mL
Log reduction from vehicle control [3, 19]: 1.19 CFU/mL
Group Geometric mean [3, 20]: 4.00 × 10^4 CFU/g
Log Group Geometric mean [3, 20]: 4.60 CFU/g
Group Geometric mean [3, 21]: 3.68 × 10^2 CFU/mL
Log Group Geometric mean [3, 21]: 2.57 CFU/mL
Log reduction from vehicle control [3, 21]: −0.13 CFU/mL
Group Geometric mean [3, 22]: 2.48 × 10^2 CFU/mL
Log Group Geometric mean [3, 22]: 2.39 CFU/mL
Log reduction from vehicle control [3, 22]: 1.30 CFU/mL
Group Geometric mean [3, 23]: 23.2 CFU/mL
Log Group Geometric mean [3, 23]: 1.37 CFU/mL
Log reduction from vehicle control [3, 23]: 2.21 CFU/mL
